Entries after “also recorded” stand apart in the source; their conditions may differ.
B1: BDNF: another trophic factor for a different tyrosine kinase receptor (protein, UniProt P23560 19-247, looked up)
Neurotrophic factor BDNF …: APMKEANIRGQGGLAYPGVRTHGTLESVNGPKAGSRGLTSLADTFEHVIEELLDEDQKVRPNEENNKDADLYTSRVMLSSQVPLEPPLLFLLEEYKNYLDAANMSMRVRRHSDPARRGELSVCDSISEWVTAADKKTAVDMSGGTVTVLEKVPVSKGQLKQYFYETKCNPMGYTKEGCRGIDKRHWNSQCRTTQSYVRALTMDSKKRIGWRFIRIDTSCVCTLTIKRGR

Legend:
[1] = target: T1, erbB4 (Homo sapiens, UniProt Q15303); assay: NRG1 stimulation-induced erbB4 tyrosine phosphorylation in postmortem brain tissue (erbB4 IP, phosphotyrosine immunoblot); assay type: cell-based; conditions: postmortem PFC tissue stimulated 37° C. 30 min; NRG1-GST or GST 200 ng/ml; NMDA 10 μM + 1 μM glycine
T1 construct: Postmortem PFC tissues were gradually thawed and sliced using a McIlwain tissue chopper; from tissue; host or cells: postmortem human prefrontal cortex (Brodmann areas 9, 10 and/or 46), schizophrenic and control subjects
T1 sequence (Q15303 26-1308): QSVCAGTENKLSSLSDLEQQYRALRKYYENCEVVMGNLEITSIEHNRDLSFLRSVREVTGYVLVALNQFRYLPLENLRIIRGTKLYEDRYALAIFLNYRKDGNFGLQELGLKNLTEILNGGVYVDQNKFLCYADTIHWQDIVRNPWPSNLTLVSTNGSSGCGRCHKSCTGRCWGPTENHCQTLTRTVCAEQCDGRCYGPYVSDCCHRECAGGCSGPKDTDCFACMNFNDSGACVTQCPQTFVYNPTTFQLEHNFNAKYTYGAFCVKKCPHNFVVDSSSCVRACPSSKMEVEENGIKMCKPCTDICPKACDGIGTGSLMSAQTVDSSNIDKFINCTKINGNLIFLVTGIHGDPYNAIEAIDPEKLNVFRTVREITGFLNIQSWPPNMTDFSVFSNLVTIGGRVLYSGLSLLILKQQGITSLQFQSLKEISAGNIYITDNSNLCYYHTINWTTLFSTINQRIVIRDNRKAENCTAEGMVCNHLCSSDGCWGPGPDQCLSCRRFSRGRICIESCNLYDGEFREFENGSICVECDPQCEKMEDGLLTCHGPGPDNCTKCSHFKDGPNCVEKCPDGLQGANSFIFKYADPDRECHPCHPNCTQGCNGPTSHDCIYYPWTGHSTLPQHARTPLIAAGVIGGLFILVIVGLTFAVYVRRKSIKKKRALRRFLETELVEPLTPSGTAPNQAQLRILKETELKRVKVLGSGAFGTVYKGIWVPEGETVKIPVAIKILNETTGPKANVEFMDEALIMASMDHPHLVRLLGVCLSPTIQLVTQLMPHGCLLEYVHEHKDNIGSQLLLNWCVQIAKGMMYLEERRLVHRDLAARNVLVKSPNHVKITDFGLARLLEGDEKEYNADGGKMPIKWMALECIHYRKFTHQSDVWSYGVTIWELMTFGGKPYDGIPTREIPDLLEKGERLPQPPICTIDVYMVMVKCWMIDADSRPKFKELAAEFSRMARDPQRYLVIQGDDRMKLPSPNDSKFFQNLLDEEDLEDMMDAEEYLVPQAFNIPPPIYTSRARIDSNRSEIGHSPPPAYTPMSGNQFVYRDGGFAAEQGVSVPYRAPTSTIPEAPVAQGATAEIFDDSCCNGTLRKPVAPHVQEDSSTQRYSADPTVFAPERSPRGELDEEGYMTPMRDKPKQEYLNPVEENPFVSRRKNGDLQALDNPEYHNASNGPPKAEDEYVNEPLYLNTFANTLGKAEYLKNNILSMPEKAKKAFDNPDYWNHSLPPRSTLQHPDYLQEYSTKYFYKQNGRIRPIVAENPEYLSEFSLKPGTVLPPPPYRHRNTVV
Procedure: Postmortem PFC tissues were gradually thawed and sliced using a McIlwain tissue chopper (200 μm×200 μm×3 mm). Tissue slices ([…]) were suspended in ice-cold Krebs-Ringer solution containing 118 mM NaCl, 4.8 mM KCl, 1.3 mM CaCl2, 1.2 mM KH2 PO4, 1.2 mM MgSO4, 25 mM NaHCO3, 10 mM glucose, 100 μM ascorbic acid, […] leupeptin, 0.2 mM PMSF, 25 μg/ml pepstatin A and 0.01 U/ml soybean trypsin inhibitor (pH 7.4). We incubated ˜20 mg of tissue with Krebs-Ringer solution containing either 200 ng/ml GST fusion protein or a mixture of neuregulin-1α-GST and neuregulin-1β-GST (200 ng/ml each), at 37° C. for 30 min. During stimulation, the incubation mixture was aerated with 95% O2, 5% CO2 every 10 min for 1 min. Ligand stimulation was terminated by adding of 1 ml ice-cold Ca^2+-free Krebs-Ringer solution containing 0.5 mM EGTA. Tissue slices were harvested by a brief centrifugation and homogenized in 0.25 ml ice-cold immunoprecipitation buffer (same make-up as homogenization buffer described above). The homogenates was centrifuged at 800 g for 10 min and the supernatant sonicated for 10 s. The proteins were solubilized in 0.5% digitonin, 0.2% sodium cholate and 0.5% NP-40 for 60 min. Lysates were cleared by centrifugation at 50,000 g for 5 min and diluted with 0.75 ml of immunoprecipitation buffer. Protein concentrations were determined using the Bradford method (Bio-Rad). […]

[2] = test system: erbB4; assay: NRG1-induced erbB4 activation in PFC slices of mice after chronic haloperidol treatment; assay type: in vivo, mouse; conditions: chronic haloperidol implant, 12 weeks
Procedure: (A) […] slices of PFCs of control and haloperidol treated mice were incubated with or without NRG 1 for 30 min. Tissue lysates were immunoprecipitated for erbB4 and were probed with antiphosphotyrosine or anti-erbB4. (B) Densitometric analysis of erbB4 activation in (A). Graph constructed for the ratios of the intensities for pY-erbB4 over erbB4 for control and haloperidol treated mice. NRG1 induced tyrosine phosphorylation was attenuated in haloperidol treated mice (t(6)=[…]);
(§1) Adult CH3 mice were implanted with a Medisorb bioabsorbable polymer disc (Alkermes Inc.), fabricated with haloperidol (n=7) or polymer vehicle only (n=7). These implants were previously shown to release haloperidol for at least 5 months with a calculated release rate of approximately 2 mg/kg per day. After 12 weeks of treatment, mice were sacrificed and the pooled serum haloperidol concentration was measured. Animal experiments were approved by the Institutional and Animal Care and Use Committee of the University of Pennsylvania.
To assess potential confounding effects of demographic or clinical variables, the levels of NRG1 and erbB4 isoforms were assessed, as well as the activation of erbB4, ERK and AKT, for correlations with sex, age, brain pH, postmortem interval and, for the schizophrenia group, exposure to an antipsychotic drug 1 month before death. No significant correlations were found. […]

[3] = Serum haloperidol concentration in implanted mice; assay type: in vivo; conditions: CH3, mouse, other: implanted bioabsorbable polymer disc, pooled serum, mice with haloperidol implant
Procedure: as §1

Row | Molecule | tyrosine phosphorylation of erbB4 [1] | NRG1-induced erbB4 activation (pY-erbB4 over erbB4), haloperidol treated vs vehicle mice [2] | concentration at 12 weeks [3] [ng/mL]
1 | CN[C@H](CC(=O)O)C(=O)O [NMDA, N-methyl-Daspartate] | did not enhance |  | 
2 | O=C(CCCN1CCC(O)(c2ccc(Cl)cc2)CC1)c1ccc(F)cc1 [haloperidol] |  | significantly reduced; also recorded: attenuated | 3.1
3 | B1 | Neither enhanced |  | 

Reference: patent US20080181882A1, “Neurgulin 1 (NRG1) - ErbB4 signaling as a target for the treatment of schizophrenia” (The University of Pennsylvania, priority 2006, published 2008)
